In this assay the target is ATX (human His-tagged) (Homo sapiens (Human), UniProt Q13822). Put plainly: Human ATX enzyme inhibition assay (fluorescence quenching, MR121 substrate). The settings on record: 30 nM ATX, 1 μM MR121 substrate, 30° C. It is filed as biochemical. The text has this:
Human ATX Enzyme Inhibition Assay
Assay working solutions were made as follows:

As usually defined, the IC50 is the midpoint of a concentration-inhibition curve. The low end stands for higher potency, the high end for lower potency.

`O=C(NC1CC2(C1)CC(C(=O)Nc1ccc3[nH]nnc3c1)C2)OCc1cc(Cl)cc(Cl)c1` (stereo not drawn) [Example 12.29, 3,5-dichlorobenzyl 6-(1H-benzo[d][1,2,3]triazol-5-ylcarbamoyl)spiro[3.3]heptan-2-ylcarbamate] showed an IC50 of 68.5 nM.

In turn, `O=C(OCc1cc(F)cc(OC(F)(F)F)c1)N1CCCC2(CCN(C(=O)c3ccc4[nH]nnc4c3)C2)C1` (stereo not drawn) [Example 12.30, 3-fluoro-5-(trifluoromethoxy)benzyl 2-(1H-benzo[d][1,2,3]triazole-5-carbonyl)-2,7-diazaspiro[4.5]decane-7-carboxylate] gave an IC50 of 1600 nM.

`CS(=O)(=O)c1cc(Cl)cc(COC(=O)N2CCC3(CC2)CN(S(=O)(=O)c2ccc4[nH]c(=O)oc4c2)C3)c1` [Example 12.31, 3-chloro-5-(methylsulfonyl)benzyl 2-(2-oxo-2,3-dihydrobenzo[d]oxazol-6-ylsulfonyl)-2,7-diazaspiro[3.5]nonane-7-carboxylate]: the midpoint of inhibition, the IC50, lay at 22 nM. The same measure for `O=C(NCc1cnn[nH]1)C1CC2(CCN(C(=O)OCc3cc(Cl)cc(Cl)c3)CC2)C1` [Example 12.32, 2-[(3H-[1,2,3]triazol-4-ylmethyl)-carbamoyl]-7-aza-spiro[3.5]nonane-7-carboxylic acid 3,5-dichloro-benzyl ester]: 44 nM.

In turn, `O=C(OCc1ccc(OC(F)(F)F)c(F)c1)N1CC2(CCN(C(=O)C3CCc4[nH]nnc4C3)CC2)C1` (stereo not drawn) [Example 12.33, 3-fluoro-4-(trifluoromethoxy)benzyl 7-(4,5,6,7-tetrahydro-1H-benzo[d][1,2,3]triazole-5-carbonyl)-2,7-diazaspiro[3.5]nonane-2-carboxylate] registered an IC50 of 13 nM. The same measure for `O=C(OCc1ccc(OC(F)(F)F)cc1)N1CC2(CCN(C(=O)C3CCc4[nH]nnc4C3)CC2)C1` (stereo not drawn) [Example 12.34, 4-(trifluoromethoxy)benzyl 7-(4,5,6,7-tetrahydro-1H-benzo[d][1,2,3]triazole-5-carbonyl)-2,7-diazaspiro[3.5]nonane-2-carboxylate]: 10 nM; for `O=C(OCc1ccc(C(F)(F)F)cc1F)N1CCC2(CC1)CN(C(=O)C1CCc3[nH]nnc3C1)C2` (stereo not drawn) [Example 12.36, [2-fluoro-4-(trifluoromethyl)phenyl]methyl 2-(4,5,6,7-tetrahydro-1H-benzotriazole-5-carbonyl)-2,7-diazaspiro[3.5]nonane-7-carboxylate]: 1 nM. The same measure for `Cc1cc(OC(F)(F)F)ccc1COC(=O)N1CCC2(CC1)CN(C(=O)C1CCc3[nH]nnc3C1)C2` (stereo not drawn) [Example 12.37, [2-methyl-4-(trifluoromethoxy)phenyl]methyl 2-(4,5,6,7-tetrahydro-1H-benzotriazole-5-carbonyl)-2,7-diazaspiro[3.5]nonane-7-carboxylate]: 1 nM; for `O=C(OCc1ccc(OCC(F)(F)F)cc1F)N1CCC2(CC1)CN(C(=O)C1CCc3nn[nH]c3C1)C2` (stereo not drawn) [Example 12.38, 2-fluoro-4-(2,2,2-trifluoroethoxy)benzyl 2-(4,5,6,7-tetrahydro-1H-benzo[d][1,2,3]triazole-6-carbonyl)-2,7-diazaspiro[3.5]nonane-7-carboxylate]: 2.5 nM; for `O=C(OCc1ccc(OCC(F)(F)F)cc1)N1CCC2(CC1)CN(C(=O)C1CCc3nn[nH]c3C1)C2` (stereo not drawn) [Example 12.39, 4-(2,2,2-trifluoroethoxy)benzyl 2-(4,5,6,7-tetrahydro-1H-benzo[d][1,2,3]triazole-6-carbonyl)-2,7-diazaspiro[3.5]nonane-7-carboxylate]: 5 nM. The same measure for `O=C(OCc1ccc(OCC(F)(F)F)c(F)c1)N1CCC2(CC1)CN(C(=O)C1CCc3nn[nH]c3C1)C2` (stereo not drawn) [Example 12.40, 3-fluoro-4-(2,2,2-trifluoroethoxy)benzyl 2-(4,5,6,7-tetrahydro-1H-benzo[d][1,2,3]triazole-6-carbonyl)-2,7-diazaspiro[3.5]nonane-7-carboxylate]: 2.5 nM; for `O=C(OCc1ccc(OC(F)(F)F)cc1F)N1CC2(CCN(C(=O)C3CCc4[nH]nnc4C3)CC2)C1` (stereo not drawn) [Example 12.41, 2-fluoro-4-(trifluoromethoxy)benzyl 7-(4,5,6,7-tetrahydro-1H-benzo[d][1,2,3]triazole-5-carbonyl)-2,7-diazaspiro[3.5]nonane-2-carboxylate]: 2 nM; for `O=C(OCc1ccc(OC(F)(F)F)cc1)N1CCC2(CC1)CN(C(=O)C1CCc3[nH]nnc3C1)C2` (stereo not drawn) [Example 12.43, 4-(trifluoromethoxy)benzyl 2-(4,5,6,7-tetrahydro-1H-benzo[d][1,2,3]triazole-5-carbonyl)-2,7-diazaspiro[3.5]nonane-7-carboxylate]: 1 nM. As to `O=C(OCc1cc(Cl)cc(C(F)(F)F)c1)N1CCC2(CC1)CN(C(=O)c1ccc3[nH]nnc3c1)C2` [Example 12.44, 3-chloro-5-(trifluoromethyl)benzyl 2-(1H-benzo[d][1,2,3]triazole-5-carbonyl)-2,7-diazaspiro[3.5]nonane-7-carboxylate], the IC50 worked out at 8 nM. The result for `CS(=O)(=O)c1cc(COC(=O)N2CCC3(CC2)CN(S(=O)(=O)c2ccc4[nH]c(=O)oc4c2)C3)cc(C(F)(F)F)c1` [Example 12.45, 3-(methylsulfonyl)-5-(trifluoromethyl)benzyl 2-(2-oxo-2,3-dihydrobenzo[d]oxazol-6-ylsulfonyl)-2,7-diazaspiro[3.5]nonane-7-carboxylate] reads 39 nM; that for `O=C(OCc1ccc(OC(F)(F)F)cc1)N1CCC2(CC1)CN(C(=O)N1CCc3[nH]nnc3C1)C2` [Example 13, 4-(Trifluoromethoxy)benzyl 2-(4,5,6,7-tetrahydro-1H-[1,2,3]triazolo[4,5-c]pyridine-5-carbonyl)-2,7-diazaspiro[3.5]nonane-7-carboxylate], 3 nM.

`O=C(OCc1ccc(OC(F)(F)F)cc1F)N1CCC2(CC1)CN(C(=O)N1CCc3[nH]nnc3C1)C2` [Example 13.01, 2-fluoro-4-(trifluoromethoxy)benzyl 2-(4,5,6,7-tetrahydro-1H-[1,2,3]triazolo[4,5-c]pyridine-5-carbonyl)-2,7-diazaspiro[3.5]nonane-7-carboxylate] had an IC50 of 1 nM.

Regarding `O=C(NCc1c[nH]nn1)N1CC2(CCN(C(=O)OCc3ccc(OC(F)(F)F)cc3)CC2)C1` [Example 14, [4-(Trifluoromethoxy)phenyl]methyl 2-((1H-triazol-4-ylmethyl)carbamoyl)-2,7-diazaspiro[3.5]nonane-7-carboxylate], half-maximal inhibition (IC50) required 23 nM. This IC50 lies about 23-fold higher than the previous one.

Molecule `O=C(NCc1c[nH]nn1)N1CC2(CCN(C(=O)OCc3ccc(OC(F)(F)F)cc3F)CC2)C1` [Example 14.01, [2-Fluoro-4-(trifluoromethoxy)phenyl]methyl 2-((1H-triazol-4-ylmethyl)carbamoyl)-2,7-diazaspiro[3.5]nonane-7-carboxylate] showed an IC50 of 41.5 nM. `O=C(OCc1ccc(C(F)(F)F)cc1F)N1CCC2(CC1)CN(C(=O)[C@H]1CCc3[nH]nnc3C1)C2` [Example 16A, (S)-[2-Fluoro-4-(trifluoromethyl)phenyl]methyl 2-[4,5,6,7-tetrahydro-1H-benzotriazole-5-carbonyl]-2,7-diazaspiro[3.5]nonane-7-carboxylate] showed an IC50 of 100 nM. This IC50 lies about 2.4-fold higher than the previous one. The same measure for `O=C(OCc1ccc(C(F)(F)F)cc1F)N1CCC2(CC1)CN(C(=O)[C@@H]1CCc3[nH]nnc3C1)C2` [Example 16B, (R)-[2-fluoro-4-(trifluoromethyl)phenyl]methyl 2-[4,5,6,7-tetrahydro-1H-benzotriazole-5-carbonyl]-2,7-diazaspiro[3.5]nonane-7-carboxylate]: 9 nM.

For the origin of these results see patent publication US9493486B2, “Diazaspirocycloalkane and azaspirocycloalkane” (Hoffmann-La Roche Inc., priority 2012, dated 2016).
